The values below come from PMC10155127 (Nature microbiology, 2022).

The assay relates to E. coli ATCC 25922. Put plainly: Time-dependent killing. The following applies: antibiotic at 4x MIC. The format is cell-based.

With `CC1(C)S[C@@H]2[C@H](NC(=O)[C@H](N)c3ccccc3)C(=O)N2[C@H]1C(=O)O` [Ampicillin, ampicillin], the “c.f.u. in time-dependent killing” value was “fell below the limit of detection”.
